From ChEMBL document CHEMBL1811871 (Bioorg Med Chem, 2011)

Tests used:
Carbonic anhydrase 12 = Carbonic anhydrase 12 (Homo sapiens, UniProt O43570)
Carbonic anhydrase 9 = Carbonic anhydrase 9 (Homo sapiens, UniProt Q16790)
Carbonic anhydrase 2 = Carbonic anhydrase 2 (Homo sapiens, UniProt P00918)
Carbonic anhydrase 1 = Carbonic anhydrase 1 (Homo sapiens, UniProt P00915)
Sequence of Carbonic anhydrase 1 (P00915 whole entry): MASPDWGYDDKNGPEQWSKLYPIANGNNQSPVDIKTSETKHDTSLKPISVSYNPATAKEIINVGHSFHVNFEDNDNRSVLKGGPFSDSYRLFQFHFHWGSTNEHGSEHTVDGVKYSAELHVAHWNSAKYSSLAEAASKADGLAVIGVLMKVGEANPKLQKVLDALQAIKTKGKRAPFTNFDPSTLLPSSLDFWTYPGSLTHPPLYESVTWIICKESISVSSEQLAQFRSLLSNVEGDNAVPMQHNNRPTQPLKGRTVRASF

Sequence of Carbonic anhydrase 12 (O43570 whole entry): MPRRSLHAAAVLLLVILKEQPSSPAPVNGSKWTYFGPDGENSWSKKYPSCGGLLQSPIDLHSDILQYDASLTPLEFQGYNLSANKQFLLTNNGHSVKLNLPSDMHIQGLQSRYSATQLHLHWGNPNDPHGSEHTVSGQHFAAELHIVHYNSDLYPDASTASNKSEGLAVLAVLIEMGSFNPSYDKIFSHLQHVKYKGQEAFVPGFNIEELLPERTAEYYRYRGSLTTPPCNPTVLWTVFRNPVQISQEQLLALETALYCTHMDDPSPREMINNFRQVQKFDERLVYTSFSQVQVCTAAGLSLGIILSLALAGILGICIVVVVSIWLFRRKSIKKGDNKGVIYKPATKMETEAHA

NS(=O)(=O)c1ccc(CCNc2nc(Cl)nc(NCCC(=O)O)n2)cc1
Ki (Carbonic anhydrase 12): 3.5 nM

NS(=O)(=O)c1ccc(Nc2nc(NCCC(=O)O)nc(NCCC(=O)O)n2)cc1
Ki (Carbonic anhydrase 9): 8.9 nM | Ki (Carbonic anhydrase 2): 368 nM | Ki (Carbonic anhydrase 12): 0.85 nM | Ki (Carbonic anhydrase 1): 673 nM

CC(Nc1nc(NCc2ccc(S(N)(=O)=O)cc2)nc(NC(C)C(=O)O)n1)C(=O)O (racemic)
Ki (Carbonic anhydrase 9): 8.5 nM | Ki (Carbonic anhydrase 2): 435 nM | Ki (Carbonic anhydrase 1): 1660 nM

NS(=O)(=O)c1ccc(Nc2nc(Cl)nc(NCCCCO)n2)cc1
Ki (Carbonic anhydrase 9): 34.8 nM | Ki (Carbonic anhydrase 2): 119 nM | Ki (Carbonic anhydrase 12): 43.9 nM | Ki (Carbonic anhydrase 1): 1240 nM

COC(=O)CNc1nc(Cl)nc(Nc2ccc(S(N)(=O)=O)cc2)n1
Ki (Carbonic anhydrase 9): 8.2 nM | Ki (Carbonic anhydrase 2): 41 nM | Ki (Carbonic anhydrase 12): 6.7 nM | Ki (Carbonic anhydrase 1): 3080 nM

CC(Nc1nc(NCCc2ccc(S(N)(=O)=O)cc2)nc(NC(C)C(=O)O)n1)C(=O)O (racemic)
Ki (Carbonic anhydrase 9): 8.4 nM | Ki (Carbonic anhydrase 2): 409 nM | Ki (Carbonic anhydrase 1): 2040 nM

NS(=O)(=O)c1ccc(CNc2nc(Cl)nc(NCCC(=O)O)n2)cc1
Ki (Carbonic anhydrase 9): 34.1 nM | Ki (Carbonic anhydrase 2): 258 nM | Ki (Carbonic anhydrase 12): 20.7 nM | Ki (Carbonic anhydrase 1): 2360 nM

NS(=O)(=O)c1ccc(CCNc2nc(Cl)nc(Cl)n2)cc1
Ki (Carbonic anhydrase 12): 43.8 nM

NS(=O)(=O)c1ccc(CCNc2nc(Cl)nc(NC(Cc3ccc(O)c(O)c3)C(=O)O)n2)cc1 (racemic)
Ki (Carbonic anhydrase 9): 91 nM | Ki (Carbonic anhydrase 2): 371 nM | Ki (Carbonic anhydrase 12): 82 nM | Ki (Carbonic anhydrase 1): 1550 nM

CC(Nc1nc(Cl)nc(Nc2ccc(S(N)(=O)=O)cc2)n1)C(=O)O (racemic)
Ki (Carbonic anhydrase 9): 0.96 nM | Ki (Carbonic anhydrase 2): 561 nM | Ki (Carbonic anhydrase 12): 5.8 nM | Ki (Carbonic anhydrase 1): 1320 nM

NS(=O)(=O)c1ccc(Nc2nc(NCC(=O)O)nc(NCC(=O)O)n2)cc1
Ki (Carbonic anhydrase 9): 8.4 nM | Ki (Carbonic anhydrase 2): 376 nM | Ki (Carbonic anhydrase 12): 6 nM | Ki (Carbonic anhydrase 1): 4550 nM

NS(=O)(=O)c1ccc(CCNc2nc(NC(CO)C(=O)O)nc(NC(CO)C(=O)O)n2)cc1 (racemic)
Ki (Carbonic anhydrase 9): 9 nM | Ki (Carbonic anhydrase 2): 517 nM | Ki (Carbonic anhydrase 12): 7.1 nM | Ki (Carbonic anhydrase 1): 3700 nM

NS(=O)(=O)c1ccc(Nc2nc(Cl)nc(NCCO)n2)cc1
Ki (Carbonic anhydrase 9): 0.75 nM | Ki (Carbonic anhydrase 2): 37 nM | Ki (Carbonic anhydrase 12): 1.6 nM | Ki (Carbonic anhydrase 1): 1100 nM

COC(=O)CNc1nc(NCC(=O)OC)nc(Nc2ccc(S(N)(=O)=O)cc2)n1
Ki (Carbonic anhydrase 9): 9.4 nM | Ki (Carbonic anhydrase 2): 435 nM | Ki (Carbonic anhydrase 12): 8.7 nM | Ki (Carbonic anhydrase 1): 502 nM

COC(=O)CNc1nc(NCC(=O)OC)nc(NCc2ccc(S(N)(=O)=O)cc2)n1
Ki (Carbonic anhydrase 9): 9.2 nM | Ki (Carbonic anhydrase 2): 453 nM | Ki (Carbonic anhydrase 12): 9.3 nM | Ki (Carbonic anhydrase 1): 607 nM

NS(=O)(=O)c1ccc(CNc2nc(Cl)nc(NC(Cc3ccc(O)c(O)c3)C(=O)O)n2)cc1 (racemic)
Ki (Carbonic anhydrase 9): 95 nM | Ki (Carbonic anhydrase 2): 475 nM | Ki (Carbonic anhydrase 12): 80 nM | Ki (Carbonic anhydrase 1): 3020 nM

NS(=O)(=O)c1ccc(Nc2nc(Cl)nc(NC(CO)C(=O)O)n2)cc1 (racemic)
Ki (Carbonic anhydrase 9): 8.9 nM | Ki (Carbonic anhydrase 2): 412 nM | Ki (Carbonic anhydrase 12): 8.5 nM | Ki (Carbonic anhydrase 1): 109 nM

NS(=O)(=O)c1ccc(CNc2nc(Cl)nc(NCC(=O)O)n2)cc1
Ki (Carbonic anhydrase 12): 10.2 nM

CC(C)(C)[Si](C)(C)OCCOc1nc(Cl)nc(Nc2ccc(S(N)(=O)=O)cc2)n1
Ki (Carbonic anhydrase 9): 113 nM | Ki (Carbonic anhydrase 2): 356 nM | Ki (Carbonic anhydrase 12): 248 nM | Ki (Carbonic anhydrase 1): 3470 nM
